# Assay results published in publication PMC7093416, “Selective USP7 inhibition elicits cancer cell killing through a p53-dependent mechanism” (Scientific Reports, 2020).
# What was measured:
# USP7-Q351S = molecular target: T1, USP7-Q351S (Homo sapiens, UniProt Q93009, Q351S); experiment: Ub-AMC enzymatic assay, USP7-Q351S mutant; format: biochemical; details: 6-hr pre-incubation
# T1 construct: made in house
# Protocol: Full length USP7 was tested for its activity in Ubiquitin-AMC assay in presence or absence of inhibitors. USP7 (5 nM) was pre-incubated for 6 hours at room temperature with different concentrations of inhibitors or DMSO as a control in 50 mM HEPES pH 7.5, 0.5 mM EDTA, 11 uM ovalbumin, and 5 mM DTT. Ubiquitin-AMC (Boston Biochem) was then added to a final concentration of 500 nM. The initial rate of the reaction was measured by collecting fluorescence data at one minute intervals over 30-minute period using a Clariostar fluorescence plate reader at excitation and emission wavelength of 345 and 445 nm respectively. The calculated initial rate values were plotted against inhibitor concentrations to determine IC50s. All the experimental data were plotted using Prism GraphPad. All assays for each compound were performed at least twice for each compound.
# BZW2 = molecular target: T2, BZW2 (Homo sapiens, UniProt Q9Y6E2); experiment: XL177A-DTB chemoproteomic profiling with XL177A competition, BZW2; format: binding; details: BZW2 reporter ion intensity
# T2 construct: endogenous in cells; host or cells: HEK 293AD lysate
# T2 sequence (Q9Y6E2 1-419): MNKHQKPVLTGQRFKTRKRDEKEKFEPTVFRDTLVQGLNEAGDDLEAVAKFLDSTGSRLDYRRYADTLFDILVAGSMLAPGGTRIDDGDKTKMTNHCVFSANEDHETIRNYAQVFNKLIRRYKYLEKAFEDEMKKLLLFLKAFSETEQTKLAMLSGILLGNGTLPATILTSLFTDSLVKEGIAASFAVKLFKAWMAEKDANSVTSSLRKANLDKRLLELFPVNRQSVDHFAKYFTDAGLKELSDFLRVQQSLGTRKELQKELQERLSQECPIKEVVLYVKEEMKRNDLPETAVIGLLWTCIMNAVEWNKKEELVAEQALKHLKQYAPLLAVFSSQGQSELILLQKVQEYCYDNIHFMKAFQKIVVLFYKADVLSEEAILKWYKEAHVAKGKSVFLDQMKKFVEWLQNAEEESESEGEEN
# Protocol: HEK 293AD cells were lysed as described above, and the lysate was cleared by centrifugation. […] SDS was added to a final concentration of 1.2% (27.2 μL of a 10% stock), and denatured by heating to 80 °C for 5 minutes. After cooling to RT, 1125 μL 1X PBS was added to dilute the final SDS concentration to 0.2%. 50 μL streptavidin agarose slurry was added to each sample, followed by incubation at RT for 3 hours. After streptavidin enrichment, samples were washed vigorously (2×0.2% SDS, 3x PBS, 3x ddH2O). After the final wash, all supernatant was removed using a flat-bottom tip, and the resin was flash frozen and stored at −80 °C until workup for TMT labeling.
# To remove rapigest, recovered supernatants were acidified with 10% TFA, incubated at 37 °C for 45 minutes, and centrifuged at 14,000 rpm for 15 minutes at 4 °C. Peptides were then desalted by C18, and dried by vacuum centrifugation. Dried peptides were reconstituted in 50 mM pH8.0 TEAB and labeled with TMT reagent at RT for 1 hour. TMT reactions were pooled and treated with hydroxylamine according to the manufacturer’s instructions. Peptide mixtures were then dried, reconstituted in 50 mM ammonium bicarbonate and desalted by SP3[53]. Eluted peptides were then analyzed by nanoflow LC-MS/MS as described[64] with a NanoAcquity UPLC system (Waters, Milford, MA) interfaced to a QExactive HF mass spectrometer (Thermofisher Scientific, San Jose, CA). TMT labeled peptides were injected onto a precolumn (4 cm POROS 10R2, Applied Biosystems, Framingham, MA), resolved on an analytical column (30 µm I.D. × 50 cm packed with 5 µm Monitor C18) and introduced to the mass spectrometer by ESI (spray voltage = 3.5 kV, flow rate ~30 nL/min). The mass spectrometer was operated in data dependent mode such that the 15 most abundant ions in each MS scan (m/z 300–2000, 120 K resolution, target = 3E6, lock mass for 445.120025 enabled) were subjected to MS/MS (m/z 100–2000, 30 K resolution, target = 1E5, max fill time = 100 ms). Dynamic exclusion was selected with a repeat count of 1 and an exclusion time of 30 seconds. MS/MS data was extracted to.mgf using mulitplierz scripts[54],[55] and searched against a forward-reverse human NCBI refseq database using Mascot version 2.6. Search parameters specified fixed carbamidomethylation of cysteine, fixed N-terminal and lysine TMT labelling, and variable oxidation (methionine). Additional multiplierz scripts were used to filter results to 1% FDR and derive protein-level aggregate reporter ion intensities using peptides mapping uniquely into the genome.
# p53 target genes = experiment: Quantitative real-time PCR of p53 target genes in MCF7 cells; format: cell-based; details: 1 μM, 24 hours
# Protocol: After cell treatment under the indicated conditions, total cellular RNA was purified using a Qiagen RNEasy kit. 1 μg of RNA was then converted to cDNA using SuperScript III First-Strand Synthesis (Invitrogen). cDNA from each sample was then combined with the indicated TaqMan probe and 2x MasterMix in a 96-well Fast RT-PCR plate (Invitrogen). qPCR was performed on an Invitrogen 7500 Fast qPCR instrument and gene expression was calculated using the 2^-∆∆Ct method on Graphpad Prism.
# [1] = XL177A-DTB pulldown, HEK293AD lysate pre-treated 100nM XL177A
# [2] = XL177A-DTB pulldown, HEK293AD lysate pre-treated 1uM XL177A
# [3] = XL177A-DTB pulldown, HEK293AD lysate pre-treated 10uM XL177A
# [4] = average of Run 1 and Run 2, 100nM XL177A
# [5] = average of Run 1 and Run 2, 1uM XL177A
# [6] = average of Run 1 and Run 2, 10uM XL177A
# T1 sequence (Q93009 whole entry Q351S): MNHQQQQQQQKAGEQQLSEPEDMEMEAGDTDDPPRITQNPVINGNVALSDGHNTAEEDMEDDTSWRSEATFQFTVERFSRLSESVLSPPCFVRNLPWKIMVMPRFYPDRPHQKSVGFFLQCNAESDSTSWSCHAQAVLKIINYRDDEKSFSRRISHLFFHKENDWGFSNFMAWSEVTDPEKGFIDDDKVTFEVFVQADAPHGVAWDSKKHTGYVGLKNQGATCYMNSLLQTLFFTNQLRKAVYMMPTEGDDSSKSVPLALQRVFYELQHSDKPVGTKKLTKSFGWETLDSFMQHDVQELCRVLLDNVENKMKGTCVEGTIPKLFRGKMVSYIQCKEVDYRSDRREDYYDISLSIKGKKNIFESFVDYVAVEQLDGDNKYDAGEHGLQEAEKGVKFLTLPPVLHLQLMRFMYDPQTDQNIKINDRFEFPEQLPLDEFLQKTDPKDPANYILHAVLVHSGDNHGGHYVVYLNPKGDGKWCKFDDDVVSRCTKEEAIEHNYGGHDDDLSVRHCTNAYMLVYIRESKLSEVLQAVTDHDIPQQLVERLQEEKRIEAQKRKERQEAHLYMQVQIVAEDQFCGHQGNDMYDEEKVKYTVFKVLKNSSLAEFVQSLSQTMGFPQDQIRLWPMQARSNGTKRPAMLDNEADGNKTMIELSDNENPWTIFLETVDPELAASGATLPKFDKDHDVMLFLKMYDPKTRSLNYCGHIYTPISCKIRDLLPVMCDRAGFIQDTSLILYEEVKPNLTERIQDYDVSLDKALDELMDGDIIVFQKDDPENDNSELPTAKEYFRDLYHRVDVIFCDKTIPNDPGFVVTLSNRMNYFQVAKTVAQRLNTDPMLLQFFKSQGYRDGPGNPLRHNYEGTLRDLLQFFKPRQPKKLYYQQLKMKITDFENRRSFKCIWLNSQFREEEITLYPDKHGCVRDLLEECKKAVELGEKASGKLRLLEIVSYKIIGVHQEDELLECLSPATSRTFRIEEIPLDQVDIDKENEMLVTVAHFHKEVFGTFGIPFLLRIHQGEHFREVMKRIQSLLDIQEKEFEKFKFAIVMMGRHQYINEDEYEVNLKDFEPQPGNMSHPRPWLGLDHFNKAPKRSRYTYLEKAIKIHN
smiles,measurement,setting,value
CN1CCN(CCC(=O)Nc2ccc3c(=O)n(CC4(O)CCN(C(=O)[C@@H](CCCNC(=O)c5ccc6c(Cl)c7c(nc6c5)CCCC7)Cc5ccccc5)CC4)cnc3c2)CC1 [XL177A],IC50,USP7-Q351S,189 nM
same,Run 1 100nM 1,BZW2; [1],6095061
same,Run 1 100nM 2,BZW2; [1],5618739
same,Run 1 100nM 3,BZW2; [1],5891848
same,Run 2 100nM 1,BZW2; [1],6367486
same,Run 2 100nM 2,BZW2; [1],5770311
same,Run 2 100nM 3,BZW2; [1],6244557
same,Run 1 1uM 1,BZW2; [2],5512643
same,Run 1 1uM 2,BZW2; [2],3810437
same,Run 1 1uM 3,BZW2; [2],5451627
same,Run 2 1uM 1,BZW2; [2],5833621
same,Run 2 1uM 2,BZW2; [2],3936167
same,Run 2 1uM 3,BZW2; [2],5735390
same,Run 1 10uM 1,BZW2; [3],4021260
same,Run 1 10uM 2,BZW2; [3],4066194
same,Run 2 10uM 1,BZW2; [3],4140296
same,Run 2 10uM 2,BZW2; [3],4394498
same,AVE 100nM 1,BZW2; [4],6231274
same,AVE 100nM 2,BZW2; [4],5694525
same,AVE 100nM 3,BZW2; [4],6068202
same,AVE 1uM 1,BZW2; [5],5673132
same,AVE 1uM 2,BZW2; [5],3873302
same,AVE 1uM 3,BZW2; [5],5593508
same,AVE 10uM 1,BZW2; [6],4080778
same,AVE 10uM 2,BZW2; [6],4230346
same,"transcription of p53 target genes (CDKN1A, GADD45A, BAX, DDB2)",p53 target genes,stimulating transcription of p53 target genes
